The first assay addresses Human Factor D (Homo sapiens (Human), UniProt P00746). In words: Human Factor D Assay. It is filed as biochemical.
Details: not given
The gist of the method: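 IC50 values derive from nonlinear regression of Factor D reaction rates against compound concentration. The enzyme, purified from human serum, is used at 80 nM final with a 5 min room-temperature compound preincubation in 50 mM Tris, 1M NaCl, pH 7.5, before 100 μM Z-L-Lys-SBzl plus 100 μM DTNB are added.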
Human Factor D, sequence (P00746 26-253): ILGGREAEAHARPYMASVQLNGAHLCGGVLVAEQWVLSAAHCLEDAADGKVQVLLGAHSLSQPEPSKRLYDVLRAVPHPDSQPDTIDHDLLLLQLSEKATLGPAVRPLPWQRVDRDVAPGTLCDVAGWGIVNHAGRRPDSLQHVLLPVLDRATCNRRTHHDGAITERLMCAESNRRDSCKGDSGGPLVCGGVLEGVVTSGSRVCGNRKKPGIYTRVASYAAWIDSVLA
Regarding `Cc1ncc(-c2ccc3c(c2)c([C@H](C)O)nn3CC(=O)N2C[C@H](F)C[C@H]2C(=O)Nc2cccc(Br)n2)cn1` [Compound 425, (2S,4R)—N-(6-Bromopyridin-2-yl)-4-fluoro-1-(2-(3-((S)-1-hydroxyethyl)-5-(2-methylpyrimidin-5-yl)-1H-indazol-1-yl)acetyl)pyrrolidine-2-carboxamide], the IC50 (in general, the point on the concentration scale where inhibition reaches its midpoint) fell in the range of 1000 to 10000 nM. As for `Cc1ncc(-c2ccc3c(c2)c([C@@H](C)O)nn3CC(=O)N2C[C@H](F)C[C@H]2C(=O)Nc2cccc(Br)n2)cn1` [Compound 426, (2S,4R)—N-(6-Bromopyridin-2-yl)-4-fluoro-1-(2-(3-((R)-1-hydroxyethyl)-5-(2-methylpyrimidin-5-yl)-1H-indazol-1-yl)acetyl)pyrrolidine-2-carboxamide], the IC50 fell in the range of 1000 to 10000 nM.

Staying with this assay, now noted: Table 3; Human Factor D 80 nM, substrate Z-L-Lys-SBzl; read-out: IC50 (Stars).
On to `CC(=O)c1nn(CC(=O)N2C[C@H](F)C[C@H]2C(=O)Nc2ncc(F)cc2Br)c2ccc(-c3cnc(C)nc3)cc12` [Compound 408, (2S,4R)-1-(2-(3-Acetyl-5-(2-methylpyrimidin-5-yl)-1H-indazol-1-yl)acetyl)-N-(3-bromo-5-fluoropyridin-2-yl)-4-fluoropyrrolidine-2-carboxamide], for which the IC50 was < 1000 nM. In the case of `Cc1ncc(-c2ccc3c(c2)c([C@H](C)O)nn3CC(=O)N2[C@@H]3C[C@@H]3C[C@H]2C(=O)Nc2cccc(Br)n2)cn1` [Compound 409, (1R,3S,5R)—N-(6-Bromopyridin-2-yl)-2-(2-(3-((S)-1-hydroxyethyl)-5-(2-methylpyrimidin-5-yl)-1H-indazol-1-yl)acetyl)-2-azabicyclo[3.1.0]hexane-3-carboxamide], the IC50 is < 1000 nM. On to `CC(=O)c1nn(CC(=O)N2C[C@@](F)(CF)C[C@H]2C(=O)Nc2cccc(Br)n2)c2ccc(-c3cnc(C)nc3)cc12` [Compound 415, (2S,4R)-1-(2-(3-Acetyl-5-(2-methylpyrimidin-5-yl)-1H-indazol-1-yl)acetyl)-N-(6-bromopyridin-2-yl)-4-fluoro-4-(fluoromethyl)pyrrolidine-2-carboxamide], for which the IC50 was < 1000 nM. Take `COC[C@@]12C[C@@H](C(=O)Nc3cccc(Br)n3)N(C(=O)Cn3nc(C(C)=O)c4cc(-c5cnc(C)nc5)ccc43)[C@@H]1C2` [Compound 416, (1R,3S,5S)-2-(2-(3-Acetyl-5-(2-methylpyrimidin-5-yl)-1H-indazol-1-yl)acetyl)-N-(6-bromopyridin-2-yl)-5-(methoxymethyl)-2-azabicyclo[3.1.0]hexane-3-carboxamide]: the IC50 is < 1000 nM. With `COC[C@@]12C[C@@H]1N(C(=O)Cn1nc(C(C)=O)c3cc(-c4cnc(C)nc4)ccc31)[C@H](C(=O)Nc1cccc(Br)n1)C2` [Compound 417, (1S,3S,5R)-2-(2-(3-Acetyl-5-(2-methylpyrimidin-5-yl)-1H-indazol-1-yl)acetyl)-N-(6-bromopyridin-2-yl)-5-(methoxymethyl)-2-azabicyclo[3.1.0]hexane-3-carboxamide], the IC50 was < 1000 nM. On to `CC(=O)c1nn(CC(=O)N2C[C@](C)(F)C[C@H]2C(=O)Nc2cccc(Br)n2)c2ccc(-c3cnc(C)nc3)cc12` [Compound 418, (2S,4R)-1-(2-(3-Acetyl-5-(2-methylpyrimidin-5-yl)-1H-indazol-1-yl)acetyl)-N-(6-bromopyridin-2-yl)-4-fluoro-4-methylpyrrolidine-2-carboxamide], for which the IC50 is < 1000 nM.

`COC[C@@]1(F)C[C@@H](C(=O)Nc2cccc(Br)n2)N(C(=O)Cn2nc(C(C)=O)c3cc(-c4cnc(C)nc4)ccc32)C1` [Compound 419, (2S,4R)-1-(2-(3-Acetyl-5-(2-methylpyrimidin-5-yl)-1H-indazol-1-yl)acetyl)-N-(6-bromopyridin-2-yl)-4-fluoro-4-(methoxymethyl)pyrrolidine-2-carboxamide]: the IC50 is < 1000 nM.

On to `CC(=O)c1nn(CC(=O)N2C[C@H](F)C[C@H]2C(=O)Nc2nn(CC(F)(F)F)cc2Br)c2ccc(-c3cnc(C)nc3)cc12` [Compound 420, (2S,4R)-1-(2-(3-Acetyl-5-(2-methylpyrimidin-5-yl)-1H-indazol-1-yl)acetyl)-N-(4-bromo-1-(2,2,2-trifluoroethyl)-1H-pyrazol-3-yl)-4-fluoropyrrolidine-2-carboxamide], for which the IC50 was < 1000 nM. On to `CNC(=O)c1nn(CC(=O)N2C[C@H](F)C[C@H]2C(=O)Nc2cccc(Br)n2)c2ccc(-c3cnc(C)nc3)cc12` [Compound 424, 1-(2-((2S,4R)-2-((6-Bromopyridin-2-yl)carbamoyl)-4-fluoropyrrolidin-1-yl)-2-oxoethyl)-N-methyl-5-(2-methylpyrimidin-5-yl)-1H-indazole-3-carboxamide], for which the IC50 was < 1000 nM. For the compound `CC(=O)c1nn(CC(=O)N2C[C@H](F)[C@@H](N)[C@H]2C(=O)Nc2cccc(Br)n2)c2ccc(-c3cnc(C)nc3)cc12` [Compound 427, (2S,3S,4S)-1-(2-(3-Acetyl-5-(2-methylpyrimidin-5-yl)-1H-indazol-1-yl)acetyl)-3-amino-N-(6-bromopyridin-2-yl)-4-fluoropyrrolidine-2-carboxamide], the IC50 was < 1000 nM. Regarding `CC(=O)c1nn(CC(=O)N2C[C@@H](N)[C@H](F)[C@H]2C(=O)Nc2cccc(Br)n2)c2ccc(-c3cnc(C)nc3)cc12` [Compound 428, (2R,3S,4R)-1-(2-(3-Acetyl-5-(2-methylpyrimidin-5-yl)-1H-indazol-1-yl)acetyl)-4-amino-N-(6-bromopyridin-2-yl)-3-fluoropyrrolidine-2-carboxamide], the IC50 is > 10000 nM.

Turning to `CC(=O)c1nn(CC(=O)N2C[C@H](F)C[C@H]2C(=O)Nc2cc(C)n(CC(F)(F)F)n2)c2ccc(-c3cnc(C)nc3)cc12` [Compound 429, (2S,4R)-1-(2-(3-Acetyl-5-(2-methylpyrimidin-5-yl)-1H-indazol-1-yl)acetyl)-N-(5-methyl-1-(2,2,2-trifluoroethyl)-1H-pyrazol-3-yl)-4-fluoropyrrolidine-2-carboxamide], the IC50 is < 1000 nM. In the case of `CC(=O)c1nn(CC(=O)N2C[C@H](F)C[C@H]2C(=O)Nc2nn(CC(F)(F)F)cc2Cl)c2ccc(-c3cnc(C)nc3)cc12` [Compound 430, (2S,4R)-1-(2-(3-Acetyl-5-(2-methylpyrimidin-5-yl)-1H-indazol-1-yl)acetyl)-N-(4-chloro-1-(2,2,2-trifluoroethyl)-1H-pyrazol-3-yl)-4-fluoropyrrolidine-2-carboxamide], the IC50 was < 1000 nM. Regarding `COc1cc(Br)nc(NC(=O)[C@@H]2C[C@@H](F)CN2C(=O)Cn2nc(C(C)=O)c3cc(-c4cnc(OC)nc4)ccc32)c1` [Compound 431, (2S,4R)-1-(2-(3-Acetyl-5-(2-methoxypyrimidin-5-yl)-1H-indazol-1-yl)acetyl)-N-(6-bromo-4-methoxypyridin-2-yl)-4-fluoropyrrolidine-2-carboxamide], the IC50 was < 1000 nM. With `COc1cc(Br)nc(NC(=O)[C@@H]2C[C@@H](F)CN2C(=O)Cn2nc(C(C)=O)c3cc(-c4cnc(N)nc4)ccc32)c1` [Compound 432, (2S,4R)-1-(2-(3-Acetyl-5-(2-aminopyrimidin-5-yl)-1H-indazol-1-yl)acetyl)-N-(6-bromo-4-methoxypyridin-2-yl)-4-fluoropyrrolidine-2-carboxamide], the concentration for half-maximal inhibition (IC50) is < 1000 nM. For the compound `COc1cc(Br)nc(NC(=O)[C@@H]2C[C@H]3C[C@H]3N2C(=O)Cn2nc(C(C)=O)c3cc(-c4cnc(OC)nc4)ccc32)c1` [Compound 433, (1R,3S,5R)-2-(2-(3-Acetyl-5-(2-methoxypyrimidin-5-yl)-1H-indazol-1-yl)acetyl)-N-(6-bromo-4-methoxypyridin-2-yl)-2-azabicyclo[3.1.0]hexane-3-carboxamide], the IC50 was < 1000 nM. Consider `COc1cc(Br)nc(NC(=O)[C@@H]2C[C@H]3C[C@H]3N2C(=O)Cn2nc(C(C)=O)c3cc(-c4cnc(N)nc4)ccc32)c1` [Compound 434, (1R,3S,5R)-2-(2-(3-Acetyl-5-(2-aminopyrimidin-5-yl)-1H-indazol-1-yl)acetyl)-N-(6-bromo-4-methoxypyridin-2-yl)-2-azabicyclo[3.1.0]hexane-3-carboxamide], for which the IC50 is < 1000 nM. As to `CC(=O)c1nn(CC(=O)N2C[C@H](F)C[C@H]2C(=O)Nc2nc(Br)ccc2C)c2ccc(-c3cnc(N)nc3)cc12` [Compound 435, (2S,4R)-1-(2-(3-Acetyl-5-(2-aminopyrimidin-5-yl)-1H-indazol-1-yl)acetyl)-N-(6-bromo-3-methylpyridin-2-yl)-4-fluoropyrrolidine-2-carboxamide], the concentration for half-maximal inhibition (IC50) was < 1000 nM. As for `COc1ncc(-c2ccc3c(c2)c(C(C)=O)nn3CC(=O)N2C[C@H](F)C[C@H]2C(=O)Nc2nc(Br)ccc2C)cn1` [Compound 436, (2S,4R)-1-(2-(3-Acetyl-5-(2-methoxypyrimidin-5-yl)-1H-indazol-1-yl)acetyl)-N-(6-bromo-3-methylpyridin-2-yl)-4-fluoropyrrolidine-2-carboxamide], the concentration for half-maximal inhibition (IC50) was < 1000 nM. With `CC(=O)c1nn(CC(=O)N2C[C@H](F)C[C@H]2C(=O)Nc2cc(F)ncc2Br)c2ccc(-c3cnc(C)nc3)cc12` [Compound 438, (2S,4R)-1-(2-(3-Acetyl-5-(2-methylpyrimidin-5-yl)-1H-indazol-1-yl)acetyl)-N-(5-bromo-2-fluoropyridin-4-yl)-4-fluoropyrrolidine-2-carboxamide], the IC50 is < 1000 nM. On to `CC(=O)c1nn(CC(=O)N2C[C@H](F)C[C@H]2C(=O)Nc2nn(C)c3ncccc23)c2ccc(-c3cnc(C)nc3)cc12` [Compound 439, (2S,4R)-1-(2-(3-Acetyl-5-(2-methylpyrimidin-5-yl)-1H-indazol-1-yl)acetyl)-4-fluoro-N-(1-methyl-1H-pyrazolo[3,4-b]pyridin-3-yl)pyrrolidine-2-carboxamide], for which the IC50 was < 1000 nM. With `Cc1ncc(-c2ccc3c(c2)c(C(=O)CO)nn3CC(=O)N2C[C@H](F)C[C@H]2C(=O)Nc2cccc(Br)n2)cn1` [Compound 440, (2S,4R)—N-(6-bromopyridin-2-yl)-4-fluoro-1-(2-(3-(2-hydroxyacetyl)-5-(2-methylpyrimidin-5-yl)-1H-indazol-1-yl)acetyl)pyrrolidine-2-carboxamide], the IC50 is < 1000 nM.

The values above are taken from patent US10287301B2 (Achillion Pharmaceuticals, Inc., priority 2015, dated 2019).
